# Data published in US8486996B2, “Aroylfuranes and aroylthiophenes” (Basilea Pharmaceutica AG, priority 2006, dated 2013).
# Like-named read-outs stand apart in the source and are kept apart here.
# Experiments:
# Format in all cases: cell-based
# [1] = Hoechst 33342 nuclear staining (48 h read-out)
# Summary of the method: (§1)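 Adherent cells pre-spread 24 h before dosing, suspension cells dosed at seeding; compounds at 0.001 μM-10 μM final, 48 h at culture conditions. Hoechst 33342 (2-5 μg/ml) added for 30 min, then fluorescence microscopy scoring of apoptotic nuclear fraction and apoptosis-specific morphology, reported as scores A-D.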
# tumor cells [2] = test: Hoechst 33342 nuclear staining (48 h read-out)
# Summary of the method: as §1
# [3] = MTS proliferation assay (72 h read-out); details: MRC5 cells
# Summary of the method: (§2)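 Tumour cells (1.5×10^3–10^4 per well) were seeded 24 h before compound addition, then exposed to 0.001–10 μM final compound for 72 h under culture conditions. MTS reagent was added for a further 3 h, absorbance was read at 492 nm, and results were binned into scores A–D.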
# tumor cells [4] = test: MTS proliferation assay (72 h read-out)
# Summary of the method: as §2
# [5] = Mitochondrial membrane potential, JC-1 (read-out 48 h); details: PBL, JC-1, 48 h
# Summary of the method: (§3)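 Tumor cells were treated with test compounds (adherent cells after 24 h of attachment, suspension cells immediately), medium holding up to 5% DMSO. After 48 h, JC-1 (2-5 μg/ml in added medium) was applied for 30 min. Fluorescence microscopy (FITC/TRITC filters) scored the fraction of cells with dissipated mitochondrial membrane potential as categories A-D.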
# tumor cells [6] = test: as above; details: JC-1, 48 h
# Summary of the method: as §3
# [7] = MRC5 cells, read-out: Hoechst 33342 nuclear staining EC50, MRC5
# [8] = PBL, read-out: Hoechst 33342 nuclear staining EC50, PBL
# [9] = HeLa cells, read-out: Hoechst 33342 nuclear staining EC50, HeLa
# [10] = Jily cells, read-out: Hoechst 33342 nuclear staining EC50, Jily
# [11] = Jurkat cells, read-out: Hoechst 33342 nuclear staining EC50, Jurkat
# [12] = HT1080 cells, read-out: MTS proliferation assay IC50, HT1080
# [13] = HeLa cells, read-out: MTS proliferation assay IC50, HeLa
# [14] = Jily cells, read-out: MTS proliferation assay IC50, Jily
# [15] = Jurkat cells, read-out: MTS proliferation assay IC50, Jurkat
# [16] = HeLa cells, read-out: Mitochondrial membrane potential (read-out 48 h) HeLa
# [17] = Jily cells, read-out: Mitochondrial membrane potential (read-out 48 h) Jily
# [18] = Jurkat cells, read-out: Mitochondrial membrane potential (read-out 48 h) Jurkat
# [19] = MCF7 cells, read-out: Mitochondrial membrane potential (read-out 48 h) MCF7
SMILES,"EC50 [1, 7] [nM]","EC50 [1, 8] [nM]",EC50 (tumor cells [2]; [9]) [nM],EC50 (tumor cells [2]; [10]) [nM],EC50 (tumor cells [2]; [11]) [nM],IC50 [3] [nM],IC50 (tumor cells [4]; [12]) [nM],IC50 (tumor cells [4]; [13]) [nM],IC50 (tumor cells [4]; [14]) [nM],IC50 (tumor cells [4]; [15]) [nM],EC50 [5] [nM],EC50 (tumor cells [6]; [16]) [nM],EC50 (tumor cells [6]; [17]) [nM],EC50 (tumor cells [6]; [18]) [nM],EC50 (tumor cells [6]; [19]) [nM],further results
COc1ccc2oc(C(=O)c3cccnc3N3CCCCC3)cc2c1 [Example 91],100 to 1000,> 1000,100 to 1000,100 to 1000,100 to 1000,< 10,< 10,10 to 100,< 10,< 10,> 1000,10 to 100,10 to 100,10 to 100,10 to 100,
CCOc1ccccc1C(=O)c1oc2ccccc2c1N [Example 55],> 1000,> 1000,> 1000,100 to 1000,100 to 1000,100 to 1000,100 to 1000,100 to 1000,10 to 100,10 to 100,> 1000,> 1000,10 to 100,100 to 1000,100 to 1000,
CN(C)c1ncccc1C(=O)c1oc2ccc(Cl)cc2c1N [Example 77],> 1000,> 1000,> 1000,100 to 1000,100 to 1000,> 1000,> 1000,> 1000,100 to 1000,,> 1000,> 1000,100 to 1000,100 to 1000,> 1000,
CCOc1ccc2oc(C(=O)c3cc(F)ccc3N3CCOCC3)cc2c1 [Example 108],10 to 100,> 1000,10 to 100,10 to 100,10 to 100,10 to 100,10 to 100,10 to 100,10 to 100,10 to 100,> 1000,100 to 1000,10 to 100,10 to 100,100 to 1000,
CCOc1ccc(F)cc1C(=O)c1oc2ccc(OC)cc2c1NS(=O)(=O)N(C)C [Example 50],> 1000,> 1000,> 1000,100 to 1000,100 to 1000,> 1000,> 1000,> 1000,100 to 1000,100 to 1000,> 1000,> 1000,> 1000,100 to 1000,> 1000,
CCOc1ccccc1C(=O)c1oc2ccc([N+](=O)[O-])cc2c1N [Example 59],> 1000,> 1000,100 to 1000,100 to 1000,10 to 100,100 to 1000,10 to 100,100 to 1000,10 to 100,10 to 100,> 1000,> 1000,100 to 1000,10 to 100,> 1000,
"Nc1c(C(=O)c2ccccc2OCc2ccccc2)oc2ccc(Cl)cc12 [Example 1, 3-Amino-5-chloro-2-(2-benzyloxybenzoyl)-benzofuran]",,> 1000,,> 1000,,,,,100 to 1000,,> 1000,,> 1000,,,"EC50 ([1]; Homo sapiens, MRC5 cells, read-out: Hoechst 33342 nuclear staining EC50, MRC5): > 1000 nM; EC50 (tumor cells [2]; Homo sapiens, HeLa cells, read-out: Hoechst 33342 nuclear staining EC50, HeLa): > 1000 nM; EC50 (tumor cells [2]; Homo sapiens, Jurkat cells, read-out: Hoechst 33342 nuclear staining EC50, Jurkat): > 1000 nM; IC50 ([3]; Homo sapiens): > 1000 nM; IC50 (tumor cells [4]; Homo sapiens, HT-1080, HT1080 cells, read-out: MTS proliferation assay IC50, HT1080): > 1000 nM; IC50 (tumor cells [4]; Homo sapiens, HeLa cells, read-out: MTS proliferation assay IC50, HeLa): > 1000 nM; EC50 (tumor cells [6]; Homo sapiens, HeLa cells, read-out: Mitochondrial membrane potential (read-out 48 h) HeLa): > 1000 nM; EC50 (tumor cells [6]; Homo sapiens, Jurkat cells, read-out: Mitochondrial membrane potential (read-out 48 h) Jurkat): 100 to 1000 nM; EC50 (tumor cells [6]; Homo sapiens, MCF7 cells, read-out: Mitochondrial membrane potential (read-out 48 h) MCF7): > 1000 nM"
CC1CCCN(c2ccc(F)cc2C(=O)c2oc3ccc(Cl)cc3c2N)C1 (stereo not drawn) [Example 104],100 to 1000,> 1000,100 to 1000,100 to 1000,100 to 1000,100 to 1000,100 to 1000,100 to 1000,100 to 1000,100 to 1000,> 1000,100 to 1000,100 to 1000,100 to 1000,100 to 1000,
Nc1c(C(=O)c2cc(F)ccc2N2CCOCC2)oc2ccc(Cl)cc12 [Example 93],10 to 100,> 1000,10 to 100,10 to 100,10 to 100,10 to 100,10 to 100,10 to 100,10 to 100,100 to 1000,> 1000,10 to 100,100 to 1000,10 to 100,100 to 1000,
Nc1c(C(=O)c2cc(F)ccc2N2CCCCC2)oc2ccc(Cl)cc12 [Example 101],100 to 1000,> 1000,100 to 1000,100 to 1000,10 to 100,100 to 1000,10 to 100,100 to 1000,100 to 1000,10 to 100,> 1000,100 to 1000,10 to 100,10 to 100,100 to 1000,
O=C(c1cc2cc(OCc3ccccc3)ccc2o1)c1cc(F)ccc1N1CC=CCC1 [Example 109],> 1000,> 1000,> 1000,> 1000,> 1000,> 1000,> 1000,> 1000,> 1000,> 1000,> 1000,> 1000,> 1000,> 1000,> 1000,
"COc1ccc(OC)c(C(=O)COc2ccc(Cl)cc2C#N)c1 [Ref D, reference compound]",> 1000,> 1000,> 1000,100 to 1000,100 to 1000,> 1000,> 1000,100 to 1000,100 to 1000,100 to 1000,> 1000,> 1000,,100 to 1000,> 1000,
